The test system of assay [1] is superoxide radicals (O2^-) released from peritoneal macrophage cells of guinea pig. Description: Inhibitory effect against superoxide radicals released from peritoneal macrophage cells of guinea pig by stimulation (FMLP), cytochrome C reduction. Format: cell-based. Particulars: Cavia porcellus, Peritoneal macrophage cell; guinea pig peritoneal macrophages 2×10^6 cells/ml; FMLP 10^-7 M; 37° C.; OD550; read-out: IC50 (superoxide radical release). The protocol:
Inhibitory effect against superoxide radicals released from the peritoneal macrophage cells of guinea pig by stimulation:
Mineral oil (15 ml) was intraperitoneally administered to a guinea pig, then 96 hours after the administration, the peritoneal macrophage cells were sampled.
Superoxide radicals (O2^-) were determined by means of reduction of cytochrome C method according to the procedure described in an article written by T. Matsumoto, K. Takeshige and S. Minakami: Biochemical and Biophysical Research Communications, Vol. 88, No. 3, pp. 974-979, (1979).
The peritoneal macrophage cells were added to make the final concentration of 2×10^6 cells/ml into ml of 80 μM-cytochrome C solution, and the test compound of pyrazine derivative of the present invention was added thereto to make the test group sample. On the other hand, water was added in place of the test compound of the present invention to make the control group sample. Each of the test group sample and the control group sample was subjected to pre-incubation at 37° C. for 1 minute.
As to the stimulating agent for releasing superoxide radicals (O2^-), FMLP (formylmethionyl leucyl phenylalanine) was added to make the final concentration thereof to 10^-7 M, to each of the test group sample and the control group sample. Then both samples were subjected to additional reaction by incubation for 1 minute.
Difference of the optical absorbances measured at 550 nm (OD550) of both test group and control group samples were determined, and the 50% inhibitory concentration (IC50) was obtained by calculating as the ratio of OD550 of the test group sample to that of the control group sample.

Assay [2] deals with releasing of hydrogen peroxide (H2O2) from the neutrocytes of rat abdominal cavity. Description: Inhibitory effect against the releasing of hydrogen peroxide (H2O2) from the neutrocytes of rat abdominal cavity. Format: cell-based, SD-strain rat. Particulars: rat neutrocytes 10^6 cells/ml; FMLP 2×10^-6 M; 37° C., 1 hour; OD510. The method, then: Inhibitory effect against the releasing of hydrogen peroxide (H2 O2) from the neutrocytes of rat abdominal cavity
1) 1%-Casein solution was administered to the adbominal cavity of a SD-strain rat, then 16 hours after the administration, the neutrocytes were obtained by washing the abdominal cavity. Thus obtained neutrocytes were washed with Hank's solution.
2) The formulation of the reaction mixture(*) was as follows: […]
______________________________________
Rat neutrocytes 10^6 cells/ml
Text compound was added to the reaction mixture, then the whole mixture was incubated at 37° C. for 1 hour.
3) Next, the reacted mixture was subjected to centrifugal separation at 2,000 rpm for 10 minutes, then ml of the supernatant liquor was taken as a sample and microliters of 1N-NaOH solution was added thereto.
4) The optical absorbance at 510 nm (OD510) was determined by means of using a spectrophotometer. The 50% inhibitory concentration was obtained by calculating as the ratio of OD510 of the test group sample to that of the control group sample.

For assay [3], the system named is releasing of lysosome from the neutrocytes of rat. Description: Inhibitory effect against the releasing of lysosome from the neutrocytes of rat. It counts as cell-based. Particulars: rat neutrocytes 5×10^5 cells/ml; 10^-6 M FMLP and 5 μg/ml cytochalasin B; OD540. The protocol:
Inhibitory effect against the releasing of lysosome from the neutrocytes of rat
The neutrocytes of rat were sampled from the abdominal cavity of the rat 16 hours after the administration of 10 ml of 1%-casein solution (physiological saline solution).
Reaction of the releasing of lysosome from the neutrocytes of rat was determined by means of the method as described in an article written by T. Matsumoto, K. Takeshige and S. Minakami: Biochemical and Biophysical Research Communications, Vol. 88, No. 3, pp. 974-979, (1979).
The neutrocytes being sampled were added to Hank's solution so as to make the concentration thereof as 5×10^5 cells/ml, and the test compound of pyrazine derivative of the present invention was added thereto to make the test group sample. On the other hand, water as added in place of the pyrazine derivative of the present invention to make the control group sample. Each of the test group sample and the control group sample was subjected to pre-incubation at 37° C. for 1 minute.
As to the stimulating agents, 10^-6 M of FMLP (formylmethionyl leucyl phenylalanine) and 5 μg/ml of cytochalasin B were added to the solution. […] After the reaction, 1N-NaOH solution was added to the reaction mixture so as to make the pH value thereof to pH 8 to 9, and the optical absorbance of both test group samples and control group samples were determined at 540 nm (OD540). […]

Molecules are shown by their SMILES. In brackets after ≈: the same amount, converted by molar mass.

IC50 data for eight compounds are collected here from patent publication US5459142A, “Pyrazinyl and piperazinyl substituted pyrazine compounds” (Otsuka Pharmaceutical Co., Ltd., priority 1991, dated 1995).

For orientation: IC50 means the point on the concentration scale where inhibition reaches its midpoint.

Consider `COc1cccc(NC(=O)c2[nH]c(=O)c(CC(C)C)[n+]([O-])c2OC)c1` [Example 2], for which the half-maximal inhibitory concentration (IC50) in assay [1] came out at 40 µg/mL (≈ 115 µM). Regarding `COc1c(C(=O)Nc2cccc(SC)c2)[nH]c(=O)c(CC(C)C)[n+]1[O-]` [Example 3], in assay [1], the IC50 turned out to be 20 µg/mL (≈ 55 µM). Consider `COc1c(C(=O)Nc2ccc3c(c2)OCO3)[nH]c(=O)c(CC(C)C)[n+]1[O-]` [Example 4], for which, in assay [1], the IC50 was 56 µg/mL (≈ 155 µM).

Regarding `COc1c(C(=O)Nc2cc(C(C)(C)C)c(O)c(C(C)(C)C)c2)[nH]c(=O)c(CC(C)C)[n+]1[O-]` [Example 5], the IC50 was determined as 17 µg/mL (≈ 38.2 µM) in assay [1] and 60 µg/mL (≈ 135 µM) in assay [2]. In the case of `COc1c(C(=O)Nc2ccccc2-c2ccccc2)[nH]c(=O)c(CC(C)C)[n+]1[O-]` [Example 6], the values for the IC50 in assay [1] and in assay [3] were 3 µg/mL (≈ 7.62 µM) and 20 µg/mL, respectively. Regarding `COc1c(C(=O)Nc2nc3ccccc3s2)[nH]c(=O)c(CC(C)C)[n+]1[O-]` [Example 7], the IC50 in assay [1] worked out at 18 µg/mL (≈ 48.1 µM); in assay [3], 16 µg/mL. Take `COc1ccc2nc(NC(=O)c3[nH]c(=O)c(CC(C)C)[n+]([O-])c3OC)sc2c1` [Example 8]: the IC50 in assay [1] is 10 µg/mL (≈ 24.7 µM). On the same count and under the same terms, then `COc1cccc(CNC(=O)c2[nH]c(=O)c(CC(C)C)[n+]([O-])c2OC)c1` [Test compound 1, 3-Isobutyl-5-methoxy-6-[N-(3-methoxybenzyl)]-carbamoyl-1,2-dihydropyrazin-2-one 4-oxide], with 30 µg/mL (≈ 83 µM).
